According to patent publication US11066368B2, “Process for the preparation and particle size reduction of pirfenidone” (Laurus Labs Limited, priority 2016, dated 2021):

Legend:
Format in all cases: physicochemical
[1] = Particle size distribution after wet milling in colloid mill (IKA MK 2000/05); conditions: water
Protocol: (§1) As used herein, the term “particle size distribution” is expressed in terms of D90, D50 and D10, which corresponds to the diameter of 90 percent by volume of the particles, 50 percent by volume of the particles and 10 percent by volume of the particles are present, respectively.
(§2) The particle size distribution of pirfenidone is measured utilizing: Instrument model: Malvern; Mastersizer 3000; particle refraction index of sample: 1.700; Absorption: 0.01 and Analysis model: general purpose, normal sensitivity, non-spherical particles.
Pirfenidone (Particle size distribution: D10: 1330 μm; D50: 1950 μm and D90: 2840 μm) and Water (3 vol) were charged into IKA colloid mill at 25° C. to 35° C. and circulated the reaction mass at 25° C. to 35° C. till required particle size was obtained. Particle size distribution of the sample with different time interval was monitored by collecting the sample from reaction mass. After achieving the required particle size, stirred the reaction mixture for 30-60 min at 25° C. to 35° C. Further, the reaction mixture temperature was allowed to cool to 0° C. to 5° C. and stirred for 2-3 hrs at same temperature. Filter the solid and washed with the wet cake with chilled water (0.5 vol), dried the solid in an oven under vacuum at 60° C. for 4-6 hours.
The following examples were performed using the above described process with different circulation time and different rpm and obtained results are tabulated as below: […]

[2] = Particle size distribution after ultra sonication by sonoprocessor (RTUL 10SP-20-3000-SD); conditions: ultra sonication in water
Protocol: as §1, §2
Water (300 mL) and Pirfenidone (200 gr; Particle size distribution: D10: 1330 μm; D50: 1950 μm and D90: 2840 μm) were charged into reaction vessel at 25° C. to 35° C. and was placed Sonoprocessor into the reaction mass till required particle size was obtained at 25° C. to 35° C. Particle size distribution of the sample with different time interval was monitored by collecting the sample from reaction mass. After achieving the required particle size, stirred the reaction mixture for 30-60 min at 25° C. to 35° C. Further, the reaction mixture temperature was allowed to cool to 0° C. to 5° C. and stirred for 2-3 hrs at same temperature. Filter the solid and washed the wet cake with chilled water (100 mL), dried the solid in an oven under vacuum at 60° C. for 4-6 hours.
The following examples were performed using the above described process with different rpm and time; the obtained results are tabulated below: […]

[3] = Dust explosion test by Modified Hartmann Apparatus; set-up: key to Dust explosion class (overall): St0H: No fire or explosion; St1H: Dust fire or mild explosion; St2H: Violent explosion; conditions: for Dust explosion Class: sieved through 63μ
Protocol: This test was performed based on procedures from VDI 2263, Part 1 (Section 2.1.1), “Dust fires and dust explosions; hazards, assessment, protective measures”, using a Modified Hartmann Apparatus. Pirfenidone was dried at 50° C. under vacuum, sieved through 63μ sieve. Weighed amount of product was charged into a modified hartmann tube of 1.2 liter volume. The product was converted into a dust cloud in glass cylindrical tube with compressed air and electrodes with continuous spark was used as ignition source to ignite the dust cloud. Based on dust fire or extent of opening of the hinged cover rating 0, 1 or 2 are assigned.

[4] = 3000 rpm, circulation time 60 mim
[5] = 3000 rpm, circulation time 120 mim
[6] = 3000 rpm, circulation time 30 min
[7] = 5000 rpm, circulation time 5 min
[8] = 5000 rpm, circulation time 60 min
[9] = 6000 rpm, circulation time 45 min
[10] = 6000 rpm, circulation time 1 hour
[11] = 6000 rpm, circulation time 2 hours, listed as 1A, 20 kg pirfenidone input
[12] = 6000 rpm, circulation time 2 hours, listed as 1B, 200 kg pirfenidone input
[13] = 6000 rpm, circulation time 3 hours, listed as 1A, 20 kg pirfenidone input
[14] = 6000 rpm, circulation time 3 hours, listed as 1B, 200 kg pirfenidone input
[15] = 6000 rpm, circulation time 4 hours, listed as 1A, 20 kg pirfenidone input
[16] = 6000 rpm, circulation time 4 hours, listed as 1B, 200 kg pirfenidone input
[17] = 6000 rpm, circulation time 5 hours, listed as 1A, 20 kg pirfenidone input
[18] = 6000 rpm, circulation time 5 hours, listed as 1B, 200 kg pirfenidone input
[19] = 6000 rpm, circulation time 6 hours, listed as 1A, 20 kg pirfenidone input
[20] = 6000 rpm, circulation time 6 hours, listed as 1B, 200 kg pirfenidone input
[21] = 6000 rpm, circulation time 7 hours
[22] = 6000 rpm, circulation time 8 hours, listed as 1B, 200 kg pirfenidone input
[23] = 6000 rpm, circulation time 8 hours, listed as 1C, 80 kg pirfenidone input
[24] = 6000 rpm, circulation time 9 hours
[25] = 6000 rpm, circulation time 10 hours, listed as 1B, 200 kg pirfenidone input
[26] = 6000 rpm, circulation time 10 hours, listed as 1C, 80 kg pirfenidone input
[27] = 6000 rpm, circulation time 12 hours, listed as 1B, 200 kg pirfenidone input
[28] = 6000 rpm, circulation time 12 hours, listed as 1C, 80 kg pirfenidone input
[29] = 6000 rpm, circulation time 14 hours
[30] = 6000 rpm, circulation time 16 hours
[31] = 6000 rpm, circulation time 19 hours
[32] = 8000 rpm, circulation time 5 min

- PSD D10 [1, 4]: 12 μm
- PSD D50 [1, 4]: 33 μm
- PSD D90 [1, 4]: 123 μm
- PSD D10 [1, 5]: 13 μm
- PSD D50 [1, 5]: 33 μm
- PSD D90 [1, 5]: 82 μm
- PSD D10 [1, 6]: 28 μm
- PSD D50 [1, 6]: 87 μm
- PSD D90 [1, 6]: 185 μm
- PSD D10 [1, 7]: 11 μm
- PSD D50 [1, 7]: 40 μm
- PSD D90 [1, 7]: 99 μm
- PSD D10 [1, 8]: 11 μm
- PSD D50 [1, 8]: 36 μm
- PSD D90 [1, 8]: 89 μm
- PSD D10 [1, 9]: 41 μm
- PSD D50 [1, 9]: 48 μm
- PSD D90 [1, 9]: 285 μm
- PSD D10 [1, 10]: 30 μm
- PSD D50 [1, 10]: 105 μm
- PSD D90 [1, 10]: 206 μm
- PSD D10 [1, 11]: 28 μm
- PSD D50 [1, 11]: 72 μm
- PSD D90 [1, 11]: 165 μm
- PSD D10 [1, 12]: 34 μm
- PSD D50 [1, 12]: 124 μm
- PSD D90 [1, 12]: 257 μm
- PSD D10 [1, 13]: 26 μm
- PSD D50 [1, 13]: 61 μm
- PSD D90 [1, 13]: 143 μm
- PSD D10 [1, 14]: 34 μm
- PSD D50 [1, 14]: 116 μm
- PSD D90 [1, 14]: 236 μm
- PSD D10 [1, 15]: 23 μm
- PSD D50 [1, 15]: 54 μm
- PSD D90 [1, 15]: 129 μm
- PSD D10 [1, 16]: 32 μm
- PSD D50 [1, 16]: 106 μm
- PSD D90 [1, 16]: 222 μm
- PSD D10 [1, 17]: 22 μm
- PSD D50 [1, 17]: 53 μm
- PSD D90 [1, 17]: 117 μm
- PSD D10 [1, 18]: 33 μm
- PSD D50 [1, 18]: 106 μm
- PSD D90 [1, 18]: 217 μm
- PSD D10 [1, 19]: 21 μm
- PSD D50 [1, 19]: 49 μm
- PSD D90 [1, 19]: 107 μm
- PSD D10 [1, 20]: 29 μm
- PSD D50 [1, 20]: 101 μm
- PSD D90 [1, 20]: 200 μm
- PSD D10 [1, 21]: 31 μm
- PSD D50 [1, 21]: 94 μm
- PSD D90 [1, 21]: 200 μm
- PSD D10 [1, 22]: 28 μm
- PSD D50 [1, 22]: 84 μm
- PSD D90 [1, 22]: 187 μm
- PSD D10 [1, 23]: 21 μm
- PSD D50 [1, 23]: 57 μm
- PSD D90 [1, 23]: 132 μm
- PSD D10 [1, 24]: 28 μm
- PSD D50 [1, 24]: 80 μm
- PSD D90 [1, 24]: 180 μm
- PSD D10 [1, 25]: 27 μm
- PSD D50 [1, 25]: 69 μm
- PSD D90 [1, 25]: 155 μm
- PSD D10 [1, 26]: 22 μm
- PSD D50 [1, 26]: 55 μm
- PSD D90 [1, 26]: 122 μm
- PSD D10 [1, 27]: 25 μm
- PSD D50 [1, 27]: 61 μm
- PSD D90 [1, 27]: 150 μm
- PSD D10 [1, 28]: 22 μm
- PSD D50 [1, 28]: 54 μm
- PSD D90 [1, 28]: 121 μm
- PSD D10 [1, 29]: 21 μm
- PSD D50 [1, 29]: 47 μm
- PSD D90 [1, 29]: 98 μm
- PSD D10 [1, 30]: 21 μm
- PSD D50 [1, 30]: 47 μm
- PSD D90 [1, 30]: 96 μm
- PSD D10 [1, 31]: 22 μm
- PSD D50 [1, 31]: 46 μm
- PSD D90 [1, 31]: 93 μm
- PSD D10 [1, 32]: 9 μm
- PSD D50 [1, 32]: 35 μm
- PSD D90 [1, 32]: 85 μm
- PSD D10 ([2]; sonication time 30 min): 44 μm
- PSD D50 ([2]; sonication time 30 min): 145 μm
- PSD D90 ([2]; sonication time 30 min): 245 μm
- PSD D10 ([2]; sonication time 60 min): 26 μm
- PSD D50 ([2]; sonication time 60 min): 101 μm
- PSD D90 ([2]; sonication time 60 min): 189 μm
- PSD D10 ([2]; sonication time 120 min): 19 μm
- PSD D50 ([2]; sonication time 120 min): 68 μm
- PSD D90 ([2]; sonication time 120 min): 150 μm
- PSD D10 ([2]; sonication time 180 min): 13 μm
- PSD D50 ([2]; sonication time 180 min): 48 μm
- PSD D90 ([2]; sonication time 180 min): 109 μm
- Dust explosion Class ([3]; Wt. of sample 120 mg, eq. dust concentration 100 g/m3): 1
- Dust explosion Class ([3]; Wt. of sample 240 mg, eq. dust concentration 200 g/m3): 2
Compound: Cc1ccc(=O)n(-c2ccccc2)c1 [Pirfenidone, 5-methyl-1-phenyl-2-1(H)-pyridone]
- Dust explosion class (overall) ([3]; summary of safety studies): St2H
